Columns and labels:
COS-7 cells = test: Automated lipofection screening: GFP-luciferase reporter gene transfer (luciferase activity per protein content); format: cell-based, African green monkey; details: point is thousands separator; for Maximum transfection efficiency, MW (mean value), Helper lipid: DOPE / Maximum transfection efficiency, MW (mean value), Helper lipid: CHOL / Maximum transfection efficiency, MW (mean value), Helper lipid: without: pEGFPLuc plasmid; for Maximum transfection efficiency, MW (mean value), Helper lipid: DOPE: cationic/helper lipid 1:0.5 with DOPE; for Maximum transfection efficiency, MW (mean value), Helper lipid: DOPE / Maximum transfection efficiency, MW (mean value), Helper lipid: CHOL: at the LDR giving the maximum; for Maximum transfection efficiency, MW (mean value), Helper lipid: CHOL: cationic/helper lipid 1:0.5 with cholesterol; for Maximum transfection efficiency, MW (mean value), Helper lipid: without: no helper lipid, at the LDR (1:1-15:1) giving the maximum
Experimental: Screening the combinatorial lipid library for lipofection properties: Goal of this first step was to compare transfection efficiency of these structurally related cationic lipids with systematically modified hydrocarbon chain compositions for the development of suitable lipofection reagents and protocols and to study the relationship between structure and transfection efficiency of this new class of cationic lipids for gene transfer. All lipids (MS-1 to MS-50, table 1) were tested using a standard protocol: From each lipid, twenty four different lipoplexes were formed containing either no helper lipid or the helper lipids DOPE and CHOL at molar amounts (1:0.5), respectively, using eight different lipid:DNA-charge ratios (LDR) from 1:1 - 15:1, resulting in a lipofection profile for each lipid. The COS-7 cell-line was used for this lipofection study since COS-7 is easy to transfect and differences between the lipids are easy to identify.
Cell culture: SV40 transformed African green monkey kidney cell line COS-7 (ATCC CRL-1651) was routinely passaged in DMEM (GIBCO BRL, Karlsruhe, Germany), respectively, supplemented with 1% L-glutamin solution (100x), 1% Penicillin/Streptomycin solution (100x) (GIBCO BRL, Karlsruhe, Germany), and 10% FCS (BioWhittaker, Verviers, Belgium) at 37°C with 5% CO2 in humidified atmosphere. For the screening cells were maintained in 96-well culture plates (Greiner, Frickenhausen, Germany) in 100 µl DMEM, 10 % FCS, 1 % Penicillin-streptomycin in a humidified atmosphere at 37 °C/5 % CO2. 24 h prior to transfection, the cells were seeded into the microtiter plate at 10,000 cells per well to reach a confluency of 50 % at the time of transfection. Dendritic cells: Dendritic cells (DC) were derived from highly purified circulating CD14(+) monocytes: In a first step, peripheral blood mononuclear leukocytes (PBL) from healthy control persons were isolated by Ficoll-Paque (Pharmacia Biotech AB, Uppsala, Sweden) density centrifugation. The following immunomagnetic purification of the monocytes from PBL was performed using CD14 Microbeads and MiniMACS high gradient magnetic separation columns (Miltenyi Biotech, Bergisch Gladbach, Germany) according to manufacturer's instructions. Isolated monocytes (5 x 10^5/well) were cultured in RPMI supplemented with 10 % FCS, or serum-free Macrophage-SFM medium (GIBCO BRL, Karlsruhe, Germany) supplemented with human recombinant GM-CSF (0.05µg/ml) and IL-4 (0.025µg/ml) (PromoCell, Heidelberg, Germany) in 6-well plates. Aliquots of the cells were reanalyzed by FACS with anti-CD14 mAbs (Pharmingen, San Diego, CA). After 5-6 days non-adherent cells were collected and purity of DCs was determined by FACS analysis using a FACSort flow cytometer (Becton Dickinson, Mountain View, CA) and the CellQuest software for data processing as recently described (Jantscheff, P. et al., J. Immunol. Methods 163(1):91-7 (1993)).

primary dendritic cells = test: Transfection of primary dendritic cells with lipoplexes (luciferase activity per protein content); format: cell-based, human
Experimental: Cell culture: SV40 transformed African green monkey kidney cell line COS-7 (ATCC CRL-1651) was routinely passaged in DMEM (GIBCO BRL, Karlsruhe, Germany), respectively, supplemented with 1% L-glutamin solution (100x), 1% Penicillin/Streptomycin solution (100x) (GIBCO BRL, Karlsruhe, Germany), and 10% FCS (BioWhittaker, Verviers, Belgium) at 37°C with 5% CO2 in humidified atmosphere. For the screening cells were maintained in 96-well culture plates (Greiner, Frickenhausen, Germany) in 100 μl DMEM, 10 % FCS, 1 % Penicillin-streptomycin in a humidified atmosphere at 37 °C/5 % CO2. 24 h prior to transfection, the cells were seeded into the microtiter plate at 10,000 cells per well to reach a confluency of 50 % at the time of transfection. […] After 5-6 days non-adherent cells were collected and purity of DCs was determined by FACS analysis using a FACSort flow cytometer (Becton Dickinson, Mountain View, CA) and the CellQuest software for data processing as recently described (Jantscheff, P. et al., J. Immunol. Methods 163(1):91-7 (1993)). […] Binding specificity was determined using IgG1 (MOPC-21), IgG2a (UPC-10), or IgG2b (MOPC-141) isotype control mAbs (SIGMA-ALDRICH Chemie, Buchs, Switzerland). […]

SMILES | transfection efficiency (DOTAP values) (COS-7 cells; best lipid/DNA charge ratio of 2.5, determined in each run) | Transfection efficiencies, RLU (primary dendritic cells; helper lipid 1:0.5 at optimum lipid:DNA ratio, ± standard deviation (lu µg^-1 protein)) | % DOTAP (primary dendritic cells; standardized on lipofection efficiency of DOTAP-lipoplexes set to 100%) | Maximum transfection efficiency, MW (mean value), Helper lipid: DOPE (COS-7 cells) | Maximum transfection efficiency, MW (mean value), Helper lipid: CHOL (COS-7 cells) | Maximum transfection efficiency, MW (mean value), Helper lipid: without (COS-7 cells)
CCCCCCCC/C=C\CCCCCCCC(=O)OCC(C[N+](C)(C)C)OC(=O)CCCCCCC/C=C\CCCCCCCC (stereo not drawn) [DOTAP, N-[1-(2,3-dioleoyloxy)propyl]-N,N,N-trimethylammonium methylsulfate] | 30.838 ± 6.363 RLU | 235 ± 119 RLU | 100% |  |  | 
CCCCCCCCCCCCCCCC[N+](C)(CCCCCCCCCCCCCCCC)[C@@H](CO)C(=O)NCCCCCN [compound 43] |  |  |  | 169.621 RLU | 222.652 RLU | 6.944 RLU
CCCCCCCCCCCCCCCCCC[N+](C)(CCCCCCCCCCCCCCCCCC)[C@@H](CO)C(=O)NCCCCCN [compound 44] |  |  |  | 1.712 RLU | 28.104 RLU | 3.542 RLU
CCCCCCCC/C=C\CCCCCCCC[N+](C)(CCCCCCCC/C=C\CCCCCCCC)[C@@H](CO)C(=O)NCCCCCN [compound 45] |  |  |  | 69.821 RLU | 64.111 RLU | 14.092 RLU
CCCCCCCCCCCC[N+](C)(CCCCCCCCCCCC)[C@@H](CO)C(=O)NCCCCCCN [compound 46] |  |  |  | 560 RLU | 766 RLU | 956 RLU
CCCCCCCCCCCCCC[N+](C)(CCCCCCCCCCCCCC)[C@@H](CO)C(=O)NCCCCCCN [compound 47] |  |  |  | 50.115 RLU | 56.974 RLU | 533 RLU
CCCCCCCCCCCCCCCC[N+](C)(CCCCCCCCCCCCCCCC)[C@@H](CO)C(=O)NCCCCCCN [compound 48] |  |  |  | 73.318 RLU | 96.148 RLU | 62.022 RLU
CCCCCCCCCCCCCCCCCC[N+](C)(CCCCCCCCCCCCCCCCCC)[C@@H](CO)C(=O)NCCCCCCN [compound 49] |  |  |  | 7.563 RLU | 10.245 RLU | 2.177 RLU
CCCCCCCC/C=C\CCCCCCCC[N+](C)(CCCCCCCC/C=C\CCCCCCCC)[C@@H](CO)C(=O)NCCCCCCN [compound 50] |  |  |  | 39.590 RLU | 70.812 RLU | 17.315 RLU
